Assay results published in US4735953A, “Pharmaceutical preparation for learning stimulation and memory improvement” (priority 1986, dated 1988).

Columns and labels:
[1] = system: learning ability of rats in a shuttle chamber; test: Active avoidance learning in a shuttle chamber, rats; type: in vivo, rat
Text: In these experiments rats are taught to avoid an electric shock by escaping into a next chamber communicating with the first chamber by means of a special opening--a door. An electric current is applied to the chamber door consisting of metal plates. A conditional irritator is a light signal together with a sound click. The learning series consisted of 50 combinations. The number of combinations necessary for the animal's learning to escape into another chamber in response to the conditional signal was determined. Five correct responses out of 6 where regarded as the proof of stability of the acquired knowledge and were denoted as a "learning criterion". After 7 days the educational procedure was repeated, and again the number of combinations necessary to acquire the "learning criterion" was determined. In the case of difference between the first and second readings the percentage of retention of the acquired knowledge was calculated.
In this experiment the effect of the preparation according to the present invention and prior art preparations was separately evaluated for the purpose of comparison on well-learning and on specially selected poorly learning rats. […] To the poorly learning rats the animals were assigned which reached no "learning criterion" in the teaching series of 50 combinations, or, in other words, a stable knowledge of active avoidance was not worked out in them. […] The preparation according to the present invention and the prior art comparison preparations were administered before the first teaching series or thereafter.
Also studied were the effects produced upon a single and repeated administration of the preparation according to the present invention for 14 days.

[2] = system: learning ability of mice in a shuttle chamber; test: Learning ability of mice in a shuttle chamber; type: in vivo, mouse
patients = test: Tolerability and side effects in patients; type: in vivo, human
Solubility = type: physicochemical
[3] = rats, hypodermally 1 mg/kg 14 days
[4] = rats, hypodermally 5 mg/kg 14 days
[5] = rats, hypodermally 5 mg/kg after teaching
[6] = mice, hypodermally 1 mg/kg, 1st day
[7] = mice, hypodermally 1 mg/kg, 12 day (retention)
[8] = mice, hypodermally 3 mg/kg, 1st day
[9] = mice, hypodermally 3 mg/kg, 12 day (retention)
[10] = mice, hypodermally 10 mg/kg, 1st day
[11] = mice, hypodermally 10 mg/kg, 12 day (retention)
[12] = mice, per os 0.3 mg/kg, 1st day
[13] = mice, per os 0.3 mg/kg, 12 day (retention)
[14] = mice, per os 1 mg/kg, 12 day (retention)
[15] = mice, per os 3 mg/kg, 12 day (retention)

SMILES: Cl.Nc1c2c(nc3c1CCC3)CCCC2.O [preparation of the invention, 9-amino-2,3,5,6,7,8-hexahydro-1H-cyclopenta(b)quinoline monohydrate hydrochloride]
- learning capacity (in words) ([1]; rats, 1, 5 and 10 mg/kg): stimulate the learning capacity of rats
- activity on learning versus comparison preparations (in words) ([1]; rats, Tables 1 and 2): substantially more active than 4-aminopyridine, physostigmine, pyracetam and lysyl-vasopressin
- Number of combinations to reach the "learning criterion" in II teaching series (after 7 days) ([1]; rats, hypodermally 1 mg/kg): 4.2 + 0.8
- Number of combinations to reach the "learning criterion" in the I teaching series ([1]; rats, hypodermally 1 mg/kg): 14.2 + 1.2
- Number of non-taught animals in the group ([1]; rats, hypodermally 1 mg/kg): 3/20
- Percentage knowledge retention ([1]; rats, hypodermally 1 mg/kg): 70.4%
- Number of combinations to reach the "learning criterion" in II teaching series (after 7 days) [1, 3]: 3.9 ± 0.8
- Number of combinations to reach the "learning criterion" in the I teaching series [1, 3]: 14.7 ± 1.9
- Number of non-taught animals in the group [1, 3]: 2/20
- Percentage knowledge retention [1, 3]: 72.7%
- Number of combinations to reach the "learning criterion" in II teaching series (after 7 days) ([1]; rats, hypodermally 5 mg/kg): 2.6 + 0.3
- Number of combinations to reach the "learning criterion" in the I teaching series ([1]; rats, hypodermally 5 mg/kg): 11.5 + 0.9
- Number of non-taught animals in the group ([1]; rats, hypodermally 5 mg/kg): 1/20
- Percentage knowledge retention ([1]; rats, hypodermally 5 mg/kg): 77.4%
- Number of combinations to reach the "learning criterion" in II teaching series (after 7 days) [1, 4]: 4.4 ± 0.5
- Number of combinations to reach the "learning criterion" in the I teaching series [1, 4]: 14.8 ± 2.0
- Number of non-taught animals in the group [1, 4]: 2/20
- Percentage knowledge retention [1, 4]: 69.3%
- Number of combinations to reach the "learning criterion" in II teaching series (after 7 days) [1, 5]: 7.2 ± 0.8
- Number of combinations to reach the "learning criterion" in the I teaching series [1, 5]: 19.0 ± 1.2
- Number of non-taught animals in the group [1, 5]: 1/20
- Percentage knowledge retention [1, 5]: 60%
- Number of combinations to reach the "learning criterion" in II teaching series (after 7 days) ([1]; rats, hypodermally 10 mg/kg): 3.0 + 0.5
- Number of combinations to reach the "learning criterion" in the I teaching series ([1]; rats, hypodermally 10 mg/kg): 12.9 + 0.8
- Number of non-taught animals in the group ([1]; rats, hypodermally 10 mg/kg): 0/15
- Percentage knowledge retention ([1]; rats, hypodermally 10 mg/kg): 76.7%
- Number of combinations to reach the "learning criterion" in II teaching series (after 7 days) ([1]; rats, per os 5 mg/kg): 6.0 + 0.5
- Number of combinations to reach the "learning criterion" in the I teaching series ([1]; rats, per os 5 mg/kg): 12.8 + 1.7
- Number of non-taught animals in the group ([1]; rats, per os 5 mg/kg): 2/20
- Percentage knowledge retention ([1]; rats, per os 5 mg/kg): 60%
- stimulating effect as compared to single-time administration (in words) ([1]; rats, two-weeks of administration): stimulating effect is also enhanced
- efficiency versus comparison preparations (in words) ([2]; mice): more efficient than pyracetam, 4-aminopyridine, physostigmine and calcium homopantothenate
- retention of the acquired knowledge (in words) ([2]; mice, 1, 3 and 10 mg/kg, after 24 hours): improves retention of the acquired knowledge
- learning process (in words) ([2]; mice, 1, 3 and 10 mg/kg, first day of teaching): facilitates the learning process
- % of avoidance reactions, group I [2, 6]: 22%
- % of avoidance reactions, group II [2, 6]: 40%
- % of avoidance reactions, group III [2, 6]: 52%
- % of avoidance reactions, group IV [2, 6]: 60%
- % of avoidance reactions, group V [2, 6]: 70%
- % of avoidance reactions, group VI [2, 6]: 74%
- % of avoidance reactions, group I [2, 7]: 70%
- % of avoidance reactions, group II [2, 7]: 88%
- % of avoidance reactions, group III [2, 7]: 90%
- % of avoidance reactions, group IV [2, 7]: 90%
- % of avoidance reactions, group V [2, 7]: 91%
- % of avoidance reactions, group VI [2, 7]: 90%
- % of avoidance reactions, group I [2, 8]: 32%
- % of avoidance reactions, group II [2, 8]: 43%
- % of avoidance reactions, group III [2, 8]: 50%
- % of avoidance reactions, group IV [2, 8]: 61%
- % of avoidance reactions, group V [2, 8]: 67%
- % of avoidance reactions, group VI [2, 8]: 65%
- % of avoidance reactions, group I [2, 9]: 66%
- % of avoidance reactions, group II [2, 9]: 90%
- % of avoidance reactions, group III [2, 9]: 88%
- % of avoidance reactions, group IV [2, 9]: 87%
- % of avoidance reactions, group V [2, 9]: 86%
- % of avoidance reactions, group VI [2, 9]: 86%
- % of avoidance reactions, group I [2, 10]: 28%
- % of avoidance reactions, group II [2, 10]: 20%
- % of avoidance reactions, group III [2, 10]: 25%
- % of avoidance reactions, group IV [2, 10]: 40%
- % of avoidance reactions, group V [2, 10]: 44%
- % of avoidance reactions, group VI [2, 10]: 46%
- % of avoidance reactions, group I [2, 11]: 61%
- % of avoidance reactions, group II [2, 11]: 75%
- % of avoidance reactions, group III [2, 11]: 78%
- % of avoidance reactions, group IV [2, 11]: 77%
- % of avoidance reactions, group V [2, 11]: 76%
- % of avoidance reactions, group VI [2, 11]: 81%
- % of avoidance reactions, group I [2, 12]: 27%
- % of avoidance reactions, group II [2, 12]: 38%
- % of avoidance reactions, group III [2, 12]: 59%
- % of avoidance reactions, group IV [2, 12]: 65%
- % of avoidance reactions, group V [2, 12]: 68%
- % of avoidance reactions, group VI [2, 12]: 72%
- % of avoidance reactions, group I [2, 13]: 79%
- % of avoidance reactions, group II [2, 13]: 84%
- % of avoidance reactions, group III [2, 13]: 82%
- % of avoidance reactions, group IV [2, 13]: 83%
- % of avoidance reactions, group V [2, 13]: 80%
- % of avoidance reactions, group VI [2, 13]: 82%
- % of avoidance reactions, group I ([2]; mice, per os 1 mg/kg, 1st day): 27%
- % of avoidance reactions, group II ([2]; mice, per os 1 mg/kg, 1st day): 43%
- % of avoidance reactions, group III ([2]; mice, per os 1 mg/kg, 1st day): 70%
- % of avoidance reactions, group IV ([2]; mice, per os 1 mg/kg, 1st day): 80%
- % of avoidance reactions, group V ([2]; mice, per os 1 mg/kg, 1st day): 80%
- % of avoidance reactions, group VI ([2]; mice, per os 1 mg/kg, 1st day): 82%
- % of avoidance reactions, group I [2, 14]: 80%
- % of avoidance reactions, group II [2, 14]: 90%
- % of avoidance reactions, group III [2, 14]: 88%
- % of avoidance reactions, group IV [2, 14]: 87%
- % of avoidance reactions, group V [2, 14]: 86%
- % of avoidance reactions, group VI [2, 14]: 90%
- % of avoidance reactions, group I ([2]; mice, per os 3 mg/kg, 1st day): 18%
- % of avoidance reactions, group II ([2]; mice, per os 3 mg/kg, 1st day): 27%
- % of avoidance reactions, group III ([2]; mice, per os 3 mg/kg, 1st day): 35%
- % of avoidance reactions, group IV ([2]; mice, per os 3 mg/kg, 1st day): 44%
- % of avoidance reactions, group V ([2]; mice, per os 3 mg/kg, 1st day): 51%
- % of avoidance reactions, group VI ([2]; mice, per os 3 mg/kg, 1st day): 50%
- % of avoidance reactions, group I [2, 15]: 51%
- % of avoidance reactions, group II [2, 15]: 76%
- % of avoidance reactions, group III [2, 15]: 75%
- % of avoidance reactions, group IV [2, 15]: 77%
- % of avoidance reactions, group V [2, 15]: 79%
- % of avoidance reactions, group VI [2, 15]: 80%
- memory stimulation, per os as compared to subcutaneous administration ([2]; mice, per os vs subcutaneous): the same or even better results of memory stimulation
- side effects, rare cases (patients; eliminated by lowering dose or temporary suspension): reduction or elevation of arterial pressure and bradycardia
- tolerability (patients; patients): well-bearable by patients
- side effects (patients; signs of stimulation of m-cholinergic systems): nausea, diarrhea, less frequently--vomition
- solubility in 95% ethanol (Solubility; 95% ethanol): less soluble in a 95% ethanol
- solubility in acetone (Solubility; acetone): substantially insoluble
- solubility in chloroform (Solubility; chloroform): substantially insoluble
- solubility in diluted solutions of acids (Solubility; diluted solutions of acids): readily soluble in diluted solutions of acids
- solubility in ether (Solubility; ether): substantially insoluble
- solubility in water (Solubility; water): well soluble in water
